US20230150924A1, “NOVEL COMPOUND HAVING CANCER METASTASIS INHIBITORY ACTIVITY, PREPARATION METHOD THEREFOR, AND PHARMACEUTICAL COMPOSITION FOR INHIBITING CANCER METASTASIS AND INVASION OR TREATING COLORECTAL CANCER, COMPRISING COMPOUND” (CELLGENTEK CO., LTD., priority 2019, published 2023)
Read-outs that look alike come from different tables or passages of the source.

Columns and labels:
KAI1 promoter = KAI1 promoter luciferase reporter assay in transfected Caco2 cells; type: cell-based, human; conditions: Homo sapiens, Caco-2, 16 h, read-out: Relative KAI promoter activity
[1] = test system: invasion of colorectal cancer cells; assay: In vivo relative invation (invasion; EV and KITENIN controls, no method described); conditions: relative to EV (=1); KIT = KITENIN
[2] = 1 μM compound, 16 hours, transfected Caco2 cells, luciferase activity relative to DMSO control (=1)

Row | Compound | fold induction at 1 µM (KAI1 promoter; [2]) | In vivo relative invation [1] | fold induction at 1 µM (KAI1 promoter)
1 | O=C(COc1ccccc1C(=O)NCC(=O)c1ccccc1)NCc1cccc(F)c1 [Example 205, 2-(2-((fluorobenzyl)amino)-2-oxoethoxy)-N-(2-oxo-2-phenylethyl)benzamide] | 1.1 | 1.166 | 
2 | CN(C)c1ccc(C(=O)CNC(=O)c2cccs2)cc1 [Example 101, N-(2-(4-(dimethylamino)phenyl)-2-oxoethyl)thiophene-2-carboxamide] | 3.04 | 0.8815 | 
3 | COc1cccc(NC(=O)COc2ccccc2C(=O)NCC(=O)c2ccccc2)c1 [Example 209, 2-(2-((3-methoxyphenyl)amino)-2-oxoethoxy)-N-(2-oxo-2-phenylethyl)benzamide] | 1.12 | 1.07 | 
4 | COc1cccc(C(=O)CNC(=O)c2cccc(CN3CCOCC3)c2)c1 [Example 293, N-(2-(3-methoxyphenyl)-2-oxoethyl)-3-(morpholinomethyl)benzamide] | 1.25 | 1.174 | 
5 | COc1cc(OC)cc(C(=O)NCC(=O)c2ccccc2)c1 [Example 42, 3,5-dimethoxy-N-(2-oxo-2-phenylethyl)benzamide] | 1.12 | 1.525 | 
6 | O=C(COc1ccccc1C(=O)NCC(=O)c1ccccc1)NCc1ccc2c(c1)OCO2 [Example 212] | 1.01 | 1.219 | 
7 | COc1cccc(C(=O)CNC(=O)c2cccs2)c1 [Example 127, N-(2-(3-methoxyphenyl)-2-oxoethyl)thiophene-2-carboxamide] | 2.46 | 1.351 | 
8 | O=C(CNC(=O)c1ccc(Cl)cc1)c1ccccc1 [Example 1, 4-chloro-N-(2-oxo-2-phenylethyl)benzamide] |  | 0.9672 | 1.7
9 | O=C(CNC(=O)c1ccccc1CN1CCC(N2CCCCC2)CC1)c1ccccc1 [Example 301, 2-([1,4′-bipiperidin]-1′-ylmethyl)-N-(2-oxo-2-phenylethyl)benzamide] | 1.61 | 1.146 | 
10 | Cc1ccc(S(=O)(=O)NCC(=O)c2ccccc2)cc1 [Example 27, 4-methyl-N-(2-oxo-2-phenylethyl)benzenesulfonamide] | 1.31 | 1.044 | 
11 | CN(C)c1ccc(C(=O)CNC(=O)c2ccc(C(F)(F)F)cc2)cc1 [Example 114, N-(2-(4-(dimethylamino)phenyl)-2-oxoethyl)-4-(trifluoromethyl)benzamide] | 1.38 | 1.197 | 
12 | Cc1cccc(C(=O)NCC(=O)c2ccc(N(C)C)cc2)c1 [Example 98, N-(2-(4-(dimethylamino)phenyl)-2-oxoethyl)-3-methylbenzamide] | 2.64 | 1.121 | 
13 | O=C(CCc1ccccc1)NCC(=O)c1ccccc1 [Example 9, N-(2-oxo-2-phenylethyl)-3-phenylpropanamide] | 1.14 | 0.8419 | 
14 | O=C(CNC(=O)c1ccccc1OC1CCN(C(=O)c2cccc([N+](=O)[O-])c2)CC1)c1ccccc1 [Example 195, 2-((1-(3-nitrobenzoyl)piperidin-4-yl)oxy)-N-(2-oxo-2-phenylethyl)benzamide] | 1.08 | 1.139 | 
15 | COc1ccccc1C(=O)N1CCC(Oc2ccccc2C(=O)NCC(=O)c2ccccc2)CC1 [Example 162, 2-((1-(2-methoxybenzoyl)piperidin-4-yl)oxy)-N-(2-oxo-2-phenylethyl)benzamide] | 0.99 | 1.043 | 
16 | C#CN(C)Cc1ccc(C(=O)NCC(=O)c2ccccc2)cc1 [Example 275, 4-((ethynyl(methyl)amino)methyl)-N-(2-oxo-2-phenylethyl)benzamide] | 6.85 | 1.146 | 
17 | COc1cccc(C(=O)CNC(=O)c2cccc(CN3CCC(N4CCCCC4)CC3)c2)c1 [Example 283, 3-([1,4′-bipiperidin]-1′-ylmethyl)-N-(2-(3-methoxyphenyl)-2-oxoethyl)benzamide] | 1.33 | 1.235 | 
18 | O=C(CNC(=O)c1ccc(F)cc1F)c1ccc(Cl)cc1 [Example 64, N-(2-(4-chlorophenyl)-2-oxoethyl)-2,4ifluorobenzamide] | 1.35 | 1.083 | 
19 | CN(C)c1ccc(C(=O)CNC(=O)c2ccc(F)cc2Cl)cc1 [Example 115, 2-chloro-N-(2-(4-(dimethylamino)phenyl)-2-oxoethyl)-4-fluorobenzamide] | 2.04 | 1.209 | 
20 | COc1ccc(CNC(=O)COc2ccccc2C(=O)NCC(=O)c2ccccc2)cc1OC [Example 215, 2-(2-((3,4-dimethoxybenzyl)amino)-2-oxoethoxy)-N-(2-oxo-2-phenylethyl)benzamide] | 0.975 | 1.304 | 

Row | Compound | fold induction at 1 µM (KAI1 promoter; [2]) | In vivo relative invation [1] | fold induction at 1 µM (KAI1 promoter)
21 | O=C(CNC(=O)c1cccc(OC(F)(F)F)c1)c1ccc(Cl)cc1 [Example 82, N-(2-(4-chlorophenyl)-2-oxoethyl)-3-(trifluoromethoxy)benzamide] | 0.8 | 1.189 | 
22 | O=C(COc1ccccc1C(=O)NCC(=O)c1ccccc1)Nc1cc(C(F)(F)F)ccc1F [Example 222, 2-(2-((2-fluoro-5-(trifluoromethyl)phenyl)amino)-2-oxoethoxy)-N-(2-oxo-2-phenylethyl)benzamide] | 1.2 | 1.275 | 
23 | CC(C)NC(=O)COc1ccccc1C(=O)NCC(=O)c1ccccc1 [Example 226, 2-(2-(isopropylamino)-2-oxoethoxy)-N-(2-oxo-2-phenylethyl)benzamide] | 1.09 | 1.349 | 
24 | O=C(CNC(=O)c1ccccc1OC1CCN(C(=O)c2ccc(Cl)cc2)CC1)c1ccccc1 [Example 151, 2-((1-(4-chlorobenzoyl)piperidin-4-yl)oxy)-N-(2-oxo-2-phenylethyl)benzamide] | 1.05 | 1.212 | 
25 | COCC(=O)NCC(=O)c1ccc(Cl)cc1 [Example 65, N-(2-(4-chlorophenyl)-2-oxoethyl)-2-methoxyacetamide] | 0.84 | 1.191 | 
26 | O=C(CNC(=O)c1ccc(CN2CCC(N3CCCCC3)CC2)cc1)c1ccccc1 [Example 260, 4-([1,4′-bipiperidin]-1′-ylmethyl)-N-(2-oxo-2-phenylethyl)benzamide] | 1.33 | 1.092 | 
27 | O=C(CNC(=O)c1ccccc1CN1CCN(c2ccccc2F)CC1)c1ccccc1 [Example 299, 2-((4-(2-fluorophenyl)piperazin-1-yl)methyl)-N-(2-oxo-2-phenylethyl)benzamide] | 2.17 | 1.068 | 
28 | CCC(=O)NCC(=O)c1cccc(OC)c1 [Example 124, N-(2-(3-methoxyphenyl)-2-oxoethyl) propionamide] | 1.04 | 1.266 | 
29 | COc1cccc(C(=O)CNC(=O)C2CC2)c1 [Example 125, N-(2-(3-methoxyphenyl)-2-oxoethyl)cyclopropanecarboxamide] | 1.48 | 0.8965 | 
30 | COc1ccc(S(=O)(=O)NCC(=O)c2ccc(N(C)C)cc2)cc1 [Example 111, N-(2-(4-(dimethylamino)phenyl)-2-oxoethyl)-4-methoxybenzenesulfonamide] | 1.44 | 1.065 | 
31 | CCOC(=O)N1CCN(Cc2ccc(C(=O)NCC(=O)c3ccccc3)cc2)CC1 [Example 277, ethyl 4-(4-((2-oxo-2-phenylethyl)carbamoyl)benzyl)piperazine-1-carboxylate] | 1.3 | 1.126 | 
32 | CCC(=O)NCC(=O)c1ccccc1 [Example 14, N-(2-oxo-2-phenylethyl)propionamide] | 1.02 | 0.9106 | 
33 | O=C(CNC(=O)c1cccc(CN2CCC(N3CCCCC3)CC2)c1)c1ccccc1 [Example 237, 3-([1,4′-bipiperidin]-1′-ylmethyl)-N-(2-oxo-2-phenylethyl)benzamide] | 1.56 | 1.114 | 
34 | O=C(COc1ccccc1C(=O)NCC(=O)c1ccccc1)Nc1ccc2c(c1)CCC2 [Example 219, 2-(2-((2,3-dihydro-1H-inden-5-yl)amino)-2-oxoethoxy)-N-(2-oxo-2-phenylethyl)benzamide] | 1.27 | 1.145 | 
35 | O=C(CNC(=O)C1CCC1)c1ccccc1 [Example 17, N-(2-oxo-2-phenylethyl)cyclobutanecarboxamide] | 0.98 | 0.9288 | 
36 | O=C(CNC(=O)c1ccccc1OC1CCN(S(=O)(=O)c2ccc(Cl)cc2)CC1)c1ccccc1 [Example 186, 2-((1-((4-chlorophenyl)sulfonyl)piperidin-4-yl)oxy)-N-(2-oxo-2-phenylethyl)benzamide] | 1.06 | 1.145 | 
37 | O=C(CNC(=O)c1ccccc1OC1CCN(C(=O)c2ccc(F)c(F)c2)CC1)c1ccccc1 [Example 196, 2-((1-(3,4-difluorobenzoyl)piperidin-4-yl)oxy)-N-(2-oxo-2-phenylethyl)benzamide] | 0.84 | 1.113 | 
38 | COc1ccc(C(=O)NCC(=O)c2ccccc2)cc1 [Example 12, 4-methoxy-N-(2-oxo-2-phenylethyl)benzamide] | 1.75 | 1.357 | 
39 | O=C(CNC(=O)c1ccc(F)cc1)c1cccnc1 [Example 133, 4-fluoro-N-(2-oxo-2-(pyridin-3-yl)ethyl)benzamide] | 1.15 | 1.32 | 
40 | CCCCC(=O)NCC(=O)c1cccc(OC)c1 [Example 128, N-(2-(3-methoxyphenyl)-2-oxoethyl)pentanamide] | 1.1 | 1.179 | 
